Data on ten compounds can be found in US9944635B2, “Deuterated pyrazino[2,1-a]isoquinoline compounds and methods of treatment using the same” (Concert Pharmaceuticals, Inc., priority 2011, dated 2018).

Like-named read-outs stand apart in the source and are kept apart here.

Series [1] in a line: Metabolic stability in human liver microsomes (in vitro half-life). It is filed as in vitro ADME. How it is done:
Human liver microsomes (20 mg/mL) are obtained from Xenotech, LLC (Lenexa, Kans.). β-nicotinamide adenine dinucleotide phosphate, reduced form (NADPH), magnesium chloride (MgCl2), and dimethyl sulfoxide (DMSO) are purchased from Sigma-Aldrich. 7.5 mM stock solutions of test compounds were prepared in DMSO. The 7.5 mM stock solutions were diluted to 50 μM in acetonitrile (ACN). The 20 mg/mL human liver microsomes were diluted to 0.625 mg/mL in 0.1 M potassium phosphate buffer, pH 7.4, containing 3 mM MgCl2. The diluted microsomes were added to wells of a 96-well deep-well polypropylene plate in triplicate. A 10 μL aliquot of the 50 μM test compound was added to the microsomes and the mixture was pre-warmed for 10 minutes. Reactions were initiated by addition of pre-warmed NADPH solution. The final reaction volume was 0.5 mL and contained 0.5 mg/mL human liver microsomes, 1.0 μM test compound, and 2 mM NADPH in 0.1 M potassium phosphate buffer, pH 7.4, and 3 mM MgCl2. The reaction mixtures were incubated at 37° C., and 50 μL aliquots were removed at 0, 5, 10, 20, and 30 minutes and added to shallow-well 96-well plates which contained 50 μL of ice-cold ACN with internal standard to stop the reactions. The plates were stored at 4° C. for 20 minutes after which 100 μL of water was added to the wells of the plate before centrifugation to pellet precipitated proteins. Supernatants were transferred to another 96-well plate and analyzed for amounts of parent remaining by LC-MS/MS using an Applied Bio-systems API 4000 mass spectrometer. […] Testing was done in triplicate.

Series [2] relates to schistosoma. The conditions noted are these: enantiomer comparison, Meyer et al. 2009; cited from earlier work.
The conditions of series [3]: FDA label for BILTRICIDE; cited from earlier work.
[4] abbreviates: pH 7.4, Table 3, 0.5 mg/mL HLM, 1.0 μM test compound, 2 mM NADPH, 37° C., read-out: Half-life (t½) Run No. 9.
Setting [5] is: pH 7.4, Table 3, 0.5 mg/mL HLM, 1.0 μM test compound, 2 mM NADPH, 37° C., read-out: Half-life (t½) Run No. 10.
The mark [6] stands for this setting: pH 7.4, Table 3, 0.5 mg/mL HLM, 1.0 μM test compound, 2 mM NADPH, 37° C., read-out: Half-life (t½) Run No. 11.
The mark [7] stands for this setting: pH 7.4, Table 3, 0.5 mg/mL HLM, 1.0 μM test compound, 2 mM NADPH, 37° C., read-out: Half-life (t½) Run No. 12.
The mark [8] stands for this setting: pH 7.4, Table 3, average of runs 9-12, read-out: Half-life (t½) AVE ± SD.
The mark [9] stands for this setting: pH 7.4, Table 1, 0.5 mg/mL HLM, 1.0 μM test compound, 2 mM NADPH, 37° C., read-out: t1/2 Run No. 1.
Setting [10] is: pH 7.4, Table 1, 0.5 mg/mL HLM, 1.0 μM test compound, 2 mM NADPH, 37° C., read-out: t1/2 Run No. 2.
The mark [11] stands for this setting: pH 7.4, Table 1, 0.5 mg/mL HLM, 1.0 μM test compound, 2 mM NADPH, 37° C., read-out: t1/2 Run No. 3.
Setting [12] is: pH 7.4, Table 1, 0.5 mg/mL HLM, 1.0 μM test compound, 2 mM NADPH, 37° C., read-out: t1/2 Run No. 4.
Where [13] appears, read: pH 7.4, Table 1, average of runs 1-4, read-out: t1/2 AVE ± SD.
The mark [14] stands for this setting: pH 7.4, Table 2, 0.5 mg/mL HLM, 1.0 μM test compound, 2 mM NADPH, 37° C., read-out: t1/2 Run No. 5.
Where [15] appears, read: pH 7.4, Table 2, 0.5 mg/mL HLM, 1.0 μM test compound, 2 mM NADPH, 37° C., read-out: t1/2 Run No. 6.
[16] abbreviates: pH 7.4, Table 2, 0.5 mg/mL HLM, 1.0 μM test compound, 2 mM NADPH, 37° C., read-out: t1/2 Run No. 8.
Where [17] appears, read: pH 7.4, Table 2, average of runs 5-8, read-out: t1/2 AVE ± SD.
The mark [18] stands for this setting: pH 7.4, Table 2, 0.5 mg/mL HLM, 1.0 μM test compound, 2 mM NADPH, 37° C., read-out: t1/2 Run No. 7.

For the compound `[2H]C1([2H])CCC(C(=O)N2CC(=O)N3CCc4ccccc4[C@@H]3C2)CC1` [101(a), (R)-2-(4,4-d2-Cyclohexanecarbonyl)-2,3,6,7-tetrahydro-1H-pyrazino[2,1-a]isoquinolin-4(11bH)-one], the half-life at 1 μM stood at 48.9 min in series [1] (setting [4]); 46.7 min in series [1] (setting [5]); 56.3 min in series [1] (setting [6]); 45.8 min in series [1] (setting [7]); 49.4 ± 4.8 min in series [1] (setting [8]).
On the same counts, the results for `[2H]C1([2H])C([2H])([2H])C([2H])([2H])C([2H])(C(=O)N2CC(=O)N3CCc4ccccc4[C@@H]3C2)C([2H])([2H])C1([2H])[2H]` [102(a), (R)-2-(Cyclohexane-d11-carbonyl)-2,3,6,7-tetrahydro-1H-pyrazino[2,1-a]isoquinolin-4(11bH)-one] are 57.4 min, 53.6 min, 50.1 min, 46 min and 51.8 ± 4.9 min.
Take `[2H]C1([2H])C(C(=O)N2CC(=O)N3CCc4ccccc4[C@@H]3C2)C([2H])([2H])C([2H])([2H])C([2H])([2H])C1([2H])[2H]` [103(a), (R)-2-(2,2,3,3,4,4,5,5,6,6-d10-Cyclohexanecarbonyl)-2,3,6,7-tetrahydro-1H-pyrazino[2,1-a]isoquinolin-4(11bH)-one]: the half-life at 1 μM amounted to 52.7 min in series [1] (setting [4]), 50 min in series [1] (setting [6]), 55.5 min in series [1] (setting [7]) and 50 ± 5.9 min in series [1] (setting [8]).
Regarding `[2H]C1([2H])CC(C(=O)N2CC(=O)N3CCc4ccccc4[C@@H]3C2)CC([2H])([2H])C1([2H])[2H]` [109(a), (R)-2-(3,3,4,4,5,5-d6-Cyclohexanecarbonyl)-2,3,6,7-tetrahydro-1H-pyrazino[2,1-a]isoquinolin-4(11bH)-one], the half-life at 1 μM in series [1] (setting [4]) is 39.5 min; in series [1] (setting [5]), 38.7 min; in series [1] (setting [6]) it was 43.2 min; in series [1] (setting [7]) it was 55.4 min; in series [1] (setting [8]), 44.2 ± 7.7 min.
Turning to `O=C(C1CCCCC1)N1CC(=O)N2CCc3ccccc3[C@@H]2C1` [(R) Praziquantel], in series [2], the schistosomicidal activity entry is given as “has schistosomicidal activity”.
Turning to `[2H]C1([2H])CCC(C(=O)N2CC(=O)N3CCc4ccccc4C3C2)CC1` (centres unmarked) [Compound 101, 2-(Cyclohexane-4,4-d2-carbonyl)-2,3,6,7-tetrahydro-1H-pyrazino[2,1-a]isoquinolin-4(11bH)-one], the half-life at 1 μM in series [1] (setting [9]) was 47.4 min; in series [1] (setting [10]), 43.6 min; in series [1] (setting [11]), 43.1 min; in series [1] (setting [12]), 52.7 min; in series [1] (setting [13]) it was 46.7 ± 4.4 min; in series [1] (setting [14]), 56.7 min. In addition, the half-life at 1 μM in series [1] (setting [15]) was found to be 53.9 min; in series [1] (setting [16]) it was 60.1 min; in series [1] (setting [17]), 52.2 ± 9.7 min.
As to `[2H]C1([2H])C([2H])([2H])C([2H])([2H])C([2H])(C(=O)N2CC(=O)N3CCc4ccccc4C3C2)C([2H])([2H])C1([2H])[2H]` (centres unmarked) [Compound 102, 2-(Cyclohexane-d11-carbonyl)-2,3,6,7-tetrahydro-1H-pyrazino[2,1-a]isoquinolin-4(11bH)-one], the half-life at 1 μM worked out at 56.4 min in series [1] (setting [9]); 55.4 min in series [1] (setting [10]); 44.8 min in series [1] (setting [11]); 66.2 min in series [1] (setting [12]); 55.7 ± 8.7 min in series [1] (setting [13]); 54.8 min in series [1] (setting [14]). The half-life at 1 μM came to 50.6 min in series [1] (setting [15]), 44.9 min in series [1] (setting [18]), 52.4 min in series [1] (setting [16]) and 50.7 ± 4.2 min in series [1] (setting [17]).
Take `[2H]C1([2H])C(C(=O)N2CC(=O)N3CCc4ccccc4C3C2)C([2H])([2H])C([2H])([2H])C([2H])([2H])C1([2H])[2H]` (centres unmarked) [Compound 103, 2-(Cyclohexane-2,2,3,3,4,4,5,5,6,6-d10-carbonyl)-2,3,6,7-tetrahydro-1H-pyrazino[2,1-a]isoquinolin-4(11bH)-one]: the half-life at 1 μM in series [1] (setting [14]) turned out to be 65.1 min; in series [1] (setting [15]), 51.6 min; in series [1] (setting [18]), 60.6 min; in series [1] (setting [16]), 69.3 min; in series [1] (setting [17]), 61.7 ± 7.6 min.
On the same counts, the results for `[2H]C1([2H])CC(C(=O)N2CC(=O)N3CCc4ccccc4C3C2)CC([2H])([2H])C1([2H])[2H]` (centres unmarked) [Compound 109, 2-(Cyclohexane-3,3,4,4,5,5,-d6-carbonyl)-2,3,6,7-tetrahydro-1H-pyrazino[2,1-a]isoquinolin-4(11bH)-one] are 55.7 min, 53.5 min, 46.4 min, 51.2 min and 52.2 ± 4.6 min.
As to `O=C(C1CCCCC1)N1CC(=O)N2CCc3ccccc3C2C1` (centres unmarked) [Praziquantel, 2-(cyclohexylcarbonyl)-1,2,3,6,7,11b-hexahydro-4H-pyrazino[2,1-a]isoquinolin-4-one, reference compound], the half-life at 1 μM in series [1] (setting [12]) worked out at 44.7 min; in series [1] (setting [13]), 38.9 ± 3.9 min; in series [1] (setting [14]) it was 41.2 min; in series [1] (setting [15]), 43.8 min; in series [1] (setting [18]), 30.6 min; in series [1] (setting [16]), 36.9 min. The half-life at 1 μM in series [1] (setting [4]) came out at 29.5 min; in series [1] (setting [5]), 31.5 min; in series [1] (setting [6]), 35.1 min; in series [1] (setting [7]) it was 30.5 min; in series [1] (setting [8]), 31.7 ± 2.5 min. In series [3], the “portion of a dose excreted in the kidneys” value is listed as “Approximately 80%”. In addition, the “portion of the renally excreted dose in the form of metabolites” value in series [3] was above 99%.
